Drawing on ChEMBL document CHEMBL3272250, “Quinoline derivatives as antiallergy agents. 2. Fused-ring quinaldic acids” (1977), this text covers Ratio and ED50 for 21 compounds.

The species entered for the first test is Rattus norvegicus. The experiment in a line: Ratio of cromolyn sodium ID50 to compound ID50 for inhibition of passive cutaneous anaphylaxis reaction in Sprague-Dawley rat. In kind it is functional.
Conditions: not given
In the case of `CCCCc1cc2c(=O)cc(C(=O)O)[nH]c2c2c(=O)cc(C(=O)O)[nH]c12` [BUFROLIN], the Ratio is on record as 500.
For `Cc1c2c(=O)cc(C(=O)[O-])[nH]c2c(Cl)c2[nH]c(C(=O)[O-])cc(=O)c12.[Na+].[Na+]`, the Ratio was >250.
On to `O=C(O)c1cc(=O)c2ccc3c(ccc4c(=O)cc(C(=O)O)[nH]c43)c2[nH]1`, for which the Ratio worked out at 500.

The subject of the next test is Rattus norvegicus. Briefly: Antiallergic activity against anti-egg albumin homocytotropic antibody injected Sprague-Dawley rat assessed as inhibition of passive cutaneous anaphylaxis reaction administered iv at the time of egg albumin antigen challenge or ip 30 mins prior to egg albumin antigen challenge. The class given is functional. Particulars: read-out: ID50 (the source's name).
For `O=C(O)c1cc(=O)c2cc(Cl)c3c(ccc4c(=O)cc(C(=O)O)[nH]c43)c2[nH]1`, the ED50 amounted to 0.05 mg/kg.
With `O=C(O)c1cc(=O)c2c([nH]1)c1c(=O)cc(C(=O)O)[nH]c1c1c(=O)cc(C(=O)O)[nH]c21`, the ED50 is 0.5 mg/kg.
`O=C(O)c1cc(=O)c2cc3c(=O)cc(C(=O)O)[nH]c3c(Cl)c2[nH]1`: the ED50 was 0.05 mg/kg.
Turning to `CCCCc1cc2c(=O)cc(C(=O)O)[nH]c2c2c(=O)cc(C(=O)O)[nH]c12` [BUFROLIN], the ED50 worked out at 0.005 mg/kg.
Regarding `Cc1c(C(=O)[O-])[nH]c2c(C)c3[nH]c(C(=O)O)c(C)c(=O)c3cc2c1=O.[Na+]`, the ED50 is 5 mg/kg.
Regarding `O=C([O-])c1cc(=O)c2cc3c(=O)cc(C(=O)[O-])[nH]c3c(C(=O)O)c2[nH]1.[Na+].[Na+]`, the ED50 worked out at 0.1 mg/kg.
In the case of `O=C(O)c1cc(=O)c2c(C(F)(F)F)c3c(=O)cc(C(=O)O)[nH]c3c(Cl)c2[nH]1`, the ED50 worked out at 5 mg/kg.
`O=C(O)c1cc(=O)c2c(cc(C(=O)O)c3c(=O)cc(C(=O)O)[nH]c32)[nH]1`: the ED50 was found to be 10 mg/kg.
Consider `N#Cc1c2[nH]c(C(=O)O)cc(=O)c2cc2c(=O)cc(C(=O)O)[nH]c12`, for which the ED50 is 0.05 mg/kg.
On to `COc1c2[nH]c(C(=O)O)cc(=O)c2cc2c(=O)cc(C(=O)O)[nH]c12`, for which the ED50 turned out to be 0.1 mg/kg.
Turning to `O=C(O)c1cc(=O)c2c(ccc3[nH]c(C(=O)O)cc(=O)c32)[nH]1`, the ED50 came to 2.5 mg/kg.
For the compound `O=C(O)c1cc(=O)c2cc3c(=O)cc(C(=O)O)[nH]c3c(F)c2[nH]1`, the ED50 is 0.5 mg/kg.
The same measure, in the same setting: under `Cc1c2[nH]c(C(=O)[O-])cc(=O)c2cc2c(=O)cc(C(=O)[O-])[nH]c12.[Na+].[Na+]` stands 0.25 mg/kg; under `N#Cc1c2c(=O)cc(C(=O)O)[nH]c2c(Cl)c2[nH]c(C(=O)O)cc(=O)c12`, 0.05 mg/kg.
Consider `O=C([O-])c1cc(=O)c2c(OCC(O)COc3cccc4oc(C(=O)[O-])cc(=O)c34)cccc2o1.[Na+].[Na+]` [CROMOLYN SODIUM], for which the ED50 was 2.5 mg/kg.
`O=C(O)c1cc(=O)c2c(ccc3c(=O)cc(C(=O)O)[nH]c32)[nH]1`: the ED50 stood at 1 mg/kg.
Still for that read-out and setting: under `CCCCCc1cc2c(=O)cc(C(=O)O)[nH]c2c2c(=O)cc(C(=O)O)[nH]c12` stands 0.05 mg/kg; under `Cc1c2c(=O)cc(C(=O)[O-])[nH]c2c(Cl)c2[nH]c(C(=O)[O-])cc(=O)c12.[Na+].[Na+]`, 0.01 mg/kg.
In the case of `Cc1c(C(=O)O)[nH]c2ccc3[nH]c(C(=O)O)c(C)c(=O)c3c2c1=O`, the ED50 came to 10 mg/kg.
With `O=C(O)c1cc(=O)c2ccc3c(ccc4c(=O)cc(C(=O)O)[nH]c43)c2[nH]1`, the ED50 stood at 0.005 mg/kg.
The same measure, in the same setting: to `O=C(O)c1ccc2ccccc2n1` [QUINALDIC ACID] belongs 50 mg/kg.
